Test [1] has as its target T1, GABA-A receptor; alpha-1/beta-2/gamma-2 (Homo sapiens, UniProt P14867+P18507+P47870).
T1 sequence (P14867 whole entry): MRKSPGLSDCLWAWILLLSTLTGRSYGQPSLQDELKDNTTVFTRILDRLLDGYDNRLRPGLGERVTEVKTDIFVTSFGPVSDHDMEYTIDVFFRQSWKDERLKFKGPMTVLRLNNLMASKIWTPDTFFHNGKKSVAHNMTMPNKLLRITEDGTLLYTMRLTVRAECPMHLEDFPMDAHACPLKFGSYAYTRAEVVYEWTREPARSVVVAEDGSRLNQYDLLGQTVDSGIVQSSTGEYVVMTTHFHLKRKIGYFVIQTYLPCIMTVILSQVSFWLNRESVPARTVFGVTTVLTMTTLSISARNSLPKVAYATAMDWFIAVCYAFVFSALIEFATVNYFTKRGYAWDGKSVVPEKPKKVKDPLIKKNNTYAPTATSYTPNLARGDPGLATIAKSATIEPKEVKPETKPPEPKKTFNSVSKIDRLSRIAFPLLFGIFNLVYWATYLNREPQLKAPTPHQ
T1 sequence (P47870 whole entry): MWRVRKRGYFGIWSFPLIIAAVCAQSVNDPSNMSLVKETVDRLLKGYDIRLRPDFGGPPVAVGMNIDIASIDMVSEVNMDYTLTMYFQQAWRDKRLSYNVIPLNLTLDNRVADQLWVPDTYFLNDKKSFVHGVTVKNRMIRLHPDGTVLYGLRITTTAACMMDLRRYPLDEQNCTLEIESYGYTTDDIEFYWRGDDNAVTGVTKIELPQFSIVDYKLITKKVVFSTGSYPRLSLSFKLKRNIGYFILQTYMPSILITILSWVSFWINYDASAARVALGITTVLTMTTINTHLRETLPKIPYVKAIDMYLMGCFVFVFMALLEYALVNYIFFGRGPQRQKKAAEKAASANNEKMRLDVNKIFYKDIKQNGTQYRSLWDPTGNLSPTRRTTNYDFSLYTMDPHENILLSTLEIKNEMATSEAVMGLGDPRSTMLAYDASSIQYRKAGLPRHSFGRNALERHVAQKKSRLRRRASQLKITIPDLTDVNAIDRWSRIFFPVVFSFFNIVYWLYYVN
T1 sequence (P18507 whole entry): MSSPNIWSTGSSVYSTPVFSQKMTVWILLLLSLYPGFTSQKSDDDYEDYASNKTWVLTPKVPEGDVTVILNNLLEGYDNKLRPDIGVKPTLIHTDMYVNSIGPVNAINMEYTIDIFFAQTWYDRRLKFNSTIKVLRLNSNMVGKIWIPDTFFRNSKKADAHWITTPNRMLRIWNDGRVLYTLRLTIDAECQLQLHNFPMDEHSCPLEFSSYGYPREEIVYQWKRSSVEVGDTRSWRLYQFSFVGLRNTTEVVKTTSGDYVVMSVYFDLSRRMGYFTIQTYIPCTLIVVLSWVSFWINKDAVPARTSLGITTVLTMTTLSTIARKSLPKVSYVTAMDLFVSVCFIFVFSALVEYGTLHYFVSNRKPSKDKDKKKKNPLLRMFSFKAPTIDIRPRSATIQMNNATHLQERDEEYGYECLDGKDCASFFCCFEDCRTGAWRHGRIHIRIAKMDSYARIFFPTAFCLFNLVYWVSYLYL
As to the kind of experiment: Antagonist activity at human alpha1beta2gamma2S GABA-A receptor expressed in tsA201 cells assessed as inhibition of GABA-induced effect after 30 mins by FLIPR membrane potential blue assay. It counts as cell-based.

Test [2] in a line: Displacement of [3H] muscimol from rat GABA A receptor.

Among the data in ChEMBL document CHEMBL2417406, “Exploring the orthosteric binding site of the γ-aminobutyric acid type A receptor using 4-(Piperidin-4-yl)-1-hydroxypyrazoles 3- or 5-imidazolyl substituted: design, synthesis, and pharmacological evaluation” (J Med Chem, 2013) are IC50, Ki and pKi values, retold here.

As usually defined, the IC50 is the concentration that gives 50% inhibition. What is called Ki is a measure of affinity in units of concentration, obtained from inhibition or displacement. As usually defined, the pKi is −log10 of the Ki, conventionally taken in molar units.

On to `On1cc(C2CCNCC2)c(-c2c[nH]c(-c3ccccc3)n2)n1`, for which the IC50 in test [1] came to 9700 nM. Also, in test [2], the Ki is 2500 nM and the pKi is 5.61.
On to `On1cc(C2CCNCC2)c(-c2cn(Cc3ccccc3)c(-c3ccccc3)n2)n1`, for which the 50% inhibitory concentration (IC50) in test [1] was determined as 210 nM. In test [2], the affinity corresponds to a Ki of 280 nM and the pKi is 6.57.
In test [2], `On1cc(C2CCNCC2)c(-c2cn(Cc3ccccc3)c(Cl)n2)n1` had an inhibition constant (Ki) of 740 nM and a pKi of 6.14.
For `On1ncc(C2CCNCC2)c1-c1cn(Cc2ccccc2)c(-c2ccccc2)n1`, in test [1], the IC50 amounted to 780 nM. Moreover, in test [2], the Ki worked out at 230 nM and the negative-log Ki (pKi) amounted to 6.64.
As for `On1cc(C2CCNCC2)c(-c2c[nH]cn2)n1`, the IC50 in test [1] is 30000 nM. Further, in test [2], the Ki came to 5100 nM and the negative logarithm of the Ki (pKi) is 5.31.
Consider `On1ncc(C2CCNCC2)c1-c1c[nH]cn1`, for which, in test [2], the affinity, expressed as Ki, was 7500 nM and the pKi came out at 5.14.
In test [2], `On1ncc(C2CCNCC2)c1-c1cn(Cc2ccccc2)c(Cl)n1` displayed an inhibition constant (Ki) of 830 nM and a pKi of 6.09.
With `On1ncc(C2CCNCC2)c1-c1c[nH]c(-c2ccccc2)n1`, the IC50 in test [1] was 690 nM. Besides, in test [2], the Ki stood at 14 nM and the negative-log Ki (pKi) is 7.86.
In test [2], `On1cc(C2CCNCC2)c(-c2cccc(-c3ccccc3)c2)n1` returned a Ki of 30 nM. In other words, the double-digit nanomolar range.
In test [2], `On1cc(C2CCNCC2)c(-c2cn(Cc3ccccc3)cn2)n1` displayed an inhibition constant Ki of 750 nM and a pKi of 6.13.
For `COc1ccc(-c2ccc(=N)n(CCCC(=O)O)n2)cc1` [GABAZINE], in test [1], the concentration for half-maximal inhibition (IC50) amounted to 240 nM. Affinity in test [2] was put at a Ki of […].
Taken in the same sequence, the figures for `On1cc(C2CCNCC2)cn1` were over 500000 nM and 10000 nM.
